# Data as given in patent US20260327570A1, “METHOD FOR PRODUCING ORGANOIDS” (Chungnam National University Hospital, priority 2022, published 2026).
# System: lung cancer organoids from lung cancer tissue exhibiting EGFR mutations
# Experiment: Drug sensitivity test of lung cancer organoids (CellTiter-Glo 3D cell viability; calcein-AM staining)
# Type: cell-based, human
# Conditions: for AUC (area under the curve) / IC50: EGFR-mutant lung cancer organoids, six concentrations, drug treatment for 3 days, viability on day 6; for IC50: Homo sapiens; for sensitivity of lung cancer organoids from EGFR-mutant lung cancer patients: result in words, EGFR-TKIs vs ALK inhibitors, consistent with the clinical response of EGFR-mutant patients
# Method: The experimental overview is conceptually illustrated in FIG. 12.
# The organoids were harvested and mixed with Matrigel (Corning Life Sciences, USA, catalog #354263) and seeded onto pillar plates at 5×10^5 cells/mL. Next, the Matrigel-cell mixture (1.5 μL) was spotted onto the coated pillar plates using a pre-cooled ASFA spotter (Medical & Bio Decision, Suwon, Republic of Korea) and incubated in an inverted position at 4 °C for 15 minutes to allow cells to aggregate at the bottom of the spots. The plates were then placed in humidity chamber at 37 °C to allow the spot to gel. Subsequently, the plates were combined with well plates containing fresh medium. After 3 days, cells were treated with EGFR or ALK targeting agents at six concentrations using the ASFA spotter. Cell viability was measured by staining with 0.5 μM calcein-AM at 37 °C for 1 hour, followed by two PBS washes for 20 minutes. The organoid spots were scanned using an automated optical fluorescence scanner (ASFA scanner, Medical & Bio Decision, Korea) The scanner's microscope automatically focused on cell spots by moving in the z-direction, capturing 384 individual images at 4× magnification from one stained pillar/well plate. The images were then integrated into a single JPEG image for data analysis. The scanned images were analyzed using CellAnalyzer version 2.0 (Medical & Bio Decision). After scanning the cells, the organoid spots were transferred to new 384-well plates containing CellTiter-Glo 3D reagent to measure intracellular ATP levels via luminescence activity.
# In brief, a total of 5000 single cells per pillar of the plate were seeded in 1.5 μL medium and cultured for 3 days. Subsequently, various EGFR-TKIs and ALK inhibitors were administered at multiple doses for 3 days to determine IC50 and AUC (area under the curve). On day 6, organoid viability was confirmed using fluorescent dye Calcein-AM (see FIG. 13), and survival rates for each drug were measured using CellTiter-Glo 3D cell viability assay (G9681; Promega) (see FIG. 14).
SMILES,AUC (area under the curve),IC50 [µM],sensitivity of lung cancer organoids from EGFR-mutant lung cancer patients
CN(C)C/C=C/C(=O)Nc1cc2c(Nc3ccc(F)c(Cl)c3)ncnc2cc1O[C@H]1CCOC1 [Afatinib],125.1,0.79,showed sensitivity
CCc1cc2c(cc1N1CCC(N3CCOCC3)CC1)C(C)(C)c1[nH]c3cc(C#N)ccc3c1C2=O [Alectinib],240.9,> 50,–
C[C@@H](Oc1cc(-c2cnn(C3CCNCC3)c2)cnc1N)c1c(Cl)ccc(F)c1Cl [Crizotinib],177.2,7.1,–
C=CC(=O)Nc1cc(Nc2nccc(-c3cn(C)c4ccccc34)n2)c(OC)cc1N(C)CCN(C)C [Osimertinib],133.9,1.8,showed sensitivity
